{"source": "patent US20070270475A1", "about": "“4-Methoxy-Pyrrolidine-2-Carboxylic Acid Compounds and Derivatives Thereof as Hepatitis C Virus Inhibitors” (priority 2004, published 2007)"}
{"biological_target": "T1, HCV RNA Polymerase, recombinant NS5B with C-terminal 21 amino acid deletion, genotype 1a (strain H77) (Hepatitis C virus genotype 1a, UniProt P27958)", "T1 construct": "fused on or other part: C-terminal 6His-tag", "T1 sequence (P27958 2601-2990 limits assumed, stated change not applied)": "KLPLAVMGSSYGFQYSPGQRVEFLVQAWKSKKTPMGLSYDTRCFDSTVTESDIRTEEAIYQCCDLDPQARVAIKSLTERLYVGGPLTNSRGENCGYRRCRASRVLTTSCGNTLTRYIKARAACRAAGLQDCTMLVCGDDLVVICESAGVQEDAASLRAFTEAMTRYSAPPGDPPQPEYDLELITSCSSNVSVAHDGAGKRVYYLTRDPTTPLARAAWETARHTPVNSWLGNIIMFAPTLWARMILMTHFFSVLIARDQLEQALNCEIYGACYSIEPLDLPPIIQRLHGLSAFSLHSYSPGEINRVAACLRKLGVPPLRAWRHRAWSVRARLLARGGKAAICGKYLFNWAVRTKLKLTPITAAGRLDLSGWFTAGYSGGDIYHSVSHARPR", "test": "In vitro HCV RNA-dependent RNA polymerase inhibition assay, genotype 1a C-terminally truncated (delta21) enzyme", "format": "biochemical, HCV genotype 1a", "settings": "genotype 1a NS5B delta21, 25 nM enzyme; read-out: IC50 in delta-21 1a enzyme inhibition assay", "excerpt": "In Vitro Detection of inhibitors of HCV RNA-Dependent RNA Polymerase Activity\nIncorporation of [^33P]-GMP into RNA was followed by absorption of the biotin labelled RNA polymer by streptavidin containing SPA beads. A synthetic template consisting of biotinylated 13mer-oligoG hybridised to polyrC was used as a homopolymer substrate.\na) Genotype 1a C-Terminally Truncated (delta21) Enzyme\nHCV RNA Polymerase [Recombinant NS5B with C-terminal 21 amino acid deletion and C-terminal 6His-tag (Ferrari et al. J. Virol. 73(2), 1999, 1649. ‘Characterization of soluble hepatitis C virus RNA-dependent RNA polymerase expressed in Escherichia coli.’) expressed in E. coli and purified to homogeneity] was added to 25 nM final concentration. Polymerase of genotype la was from strain H77 (Yanagi, M., Purcell, R. H., Emerson, S. U. & Bukh, J. (1997), Proceedings of the National Academy of Sciences, USA 94, 8738-8743) containing a sequence change from valine to isoleucine at position 180.\nReaction Conditions were 25 nM enzyme, 1.5 μg/ml oligo-rG13/poly-rC and 0.2 μCi α-^33P-GTP in 0.5 μM GTP (20 Ci/mMol) , 20 mM Tris pH 7.5, 23 mM NaCl, 3 mM DTT, 5 mM MgCl2, 1 mM MnCl2.\nEnzyme was diluted to 500 nM concentration in 20 mM Tris-HCl, pH 7.5, 25 mM NaCl and 3 mM DTT.\n4× concentrated assay buffer mix was prepared using 1M Tris-HCl, pH7.5 (1 mL), 5M NaCl (0.25 mL), 1M DTT (0.12 mL) and Water (8.63 mL), Total 10 mL.\n2× concentrated first reagent was prepared using 4× concentrated assay buffer mix (5 μL), 40 μ/μL RNasin (0.1 μL), 20 μg/mL polyrC/biotinylated-oligorG (1.6 μL), 500 nM enzyme (1 μL ) and Water (2.3 μL), Total 10 μL/well.\n2× concentrated second reagent was prepared using 1 M MgCl2 ([…]), 1M MnCl2 (0.02 μL), 25 μM GTP (0.4 μL), α-[^33P]-GTP (10 μCi/μL, 0.02 μL) and water (9.5 μL), Total 10 μL/well.\nThe assay was set up using compound (1 μL in 100% DMSO), first reagent (10 μL), and second reagent (10 μL), Total 21 μL.\nThe reaction was performed in a U-bottomed, white, 96-well plate. The reaction was mixed on a plate-shaker, after addition of the Enzyme, and incubated for 1 h at 22° C. After this time, the reaction was stopped by addition of 60 μL 1.5 mg/ml streptavidin SPA beads (Amersham) in 0.1 M EDTA in PBS. The beads were incubated with the reaction mixture for 1 h at 22° C. after which 100 μL 0.1 M EDTA in PBS was added. The plate was sealed, mixed centrifuged and incorporated radioactivity determined by counting in a Trilux (Wallac) or Topcount (Packard) Scintillation Counter.\nAfter subtraction of background levels without enzyme, any reduction in the amount of radioactivity incorporated in the presence of a compound, compared to that in the absence, was taken as a measure of the level of inhibition. Ten concentrations of compounds were tested in three- or fivefold dilutions. From the counts per minute, percentage of inhibition at highest concentration tested or IC50s for the compounds were calculated using GraFit 3, GraFit 4 or GraFit 5 (Erithacus Software Ltd.) software packages or a data evaluation macro for Excel based on XLFit software (IDBS).", "units": {"IC50": "nM"}}
{"compound": "COC[C@H]1C[C@@](Cc2ccccc2)(C(=O)O)N(C(=O)c2ccc(C(C)(C)C)c(OC)c2)[C@H]1c1nccs1", "note": "(racemic) [Compound E, rel-(2R,4S,5R)-2-benzyl-1-(3-methoxy-4-tert-butylbenzoyl)-4-methoxymethyl-5-(1,3-thiazol-2-yl)-pyrrolidine-2-carboxylic acid, reference compound]", "IC50": "> 1000"}
{"compound": "COC[C@H]1C[C@@](CC(C)C)(C(=O)O)N(C(=O)c2ccc(C(C)(C)C)c(OC)c2)[C@H]1c1nccs1", "note": "[Compound B, (2S,4S,5R)-2-isobutyl-1-(3-methoxy-4-tert-butylbenzoyl)-4-methoxymethyl-5-(1,3-thiazol-2-yl)pyrrolidine-2-carboxylic acid, reference compound]", "IC50": "> 1000"}
{"compound": "COC[C@H]1C[C@@](Cn2cccn2)(C(=O)O)N(C(=O)c2ccc(C(C)(C)C)c(OC)c2)[C@H]1c1nccs1", "note": "(single isomer, unassigned) [Example 7]", "IC50": "< 750"}
{"compound": "COC[C@H]1C[C@@](CC(C)C)(C(=O)O)N(C(=O)c2ccc(C(C)(C)C)c(OC)c2)[C@H]1c1nccs1", "note": "(racemic) [Compound A, rel-(2S,4S,5R)-2-isobutyl-1-(3-methoxy-4-tert-butylbenzoyl)-4-methoxymethyl-5-(1,3-thiazol-2-yl)pyrrolidine-2-carboxylic acid, reference compound]", "IC50": "> 1000"}
{"compound": "COC[C@H]1C[C@@](Cc2nccs2)(C(=O)O)N(C(=O)c2ccc(C(C)(C)C)c(OC)c2)[C@H]1c1ncc(C)s1", "note": "(racemic) [Example 8, rel-(2R,4S,5R)-1-(3-Methoxy-4-tert-butylbenzoyl)-4-(methoxymethyl)-5-(5-methyl-1,3-thiazol-2-yl)-2-(1,3-thiazol-2-ylmethyl)pyrrolidine-2-carboxylic acid]", "IC50": "< 750"}
{"compound": "COC[C@H]1C[C@@](CC(C)C)(C(=O)O)N(C(=O)c2ccc(C(C)(C)C)c(OC)c2)[C@H]1c1ncc(C)s1", "note": "(racemic) [Compound C, rel-(2S,4S,5R)-2-isobutyl-1-(3-methoxy-4-tert-butylbenzoyl)-4-methoxymethyl-5-(5-methyl-1,3-thiazol-2-yl)pyrrolidine-2-carboxylic acid, reference compound]", "IC50": "> 1000"}
{"compound": "COC[C@H]1C[C@@](Cc2cscn2)(C(=O)O)N(C(=O)c2ccc(C(C)(C)C)c(OC)c2)[C@H]1c1ncc(C)s1", "note": "(single isomer, unassigned; enantiomer a) [Example 2]", "IC50": "< 750"}
{"compound": "COC[C@H]1C[C@@](Cc2cscn2)(C(=O)O)N(C(=O)c2ccc(C(C)(C)C)c(OC)c2)[C@H]1c1nccs1", "note": "(racemic) [Example 3, rel-(2R,4S,5R)-1-(3-Methoxy-4-tert-butylbenzoyl)-4-(methoxymethyl)-5-(1,3-thiazol-2-yl)-2-(1,3-thiazol-4-ylmethyl)pyrrolidine-2-carboxylic acid]", "IC50": "< 750"}
{"compound": "COC[C@H]1C[C@@](Cn2cccn2)(C(=O)O)N(C(=O)c2ccc(C(C)(C)C)c(OC)c2)[C@H]1c1nccs1", "note": "(racemic) [Example 6, rel-(2R,4S,5R)-1-(3-Methoxy-4-tert-butylbenzoyl)-4-(methoxymethyl)-2-(1H-pyrazol-1-ylmethyl)-5-(1,3-thiazol-2-yl)pyrrolidine-2-carboxylic acid]", "IC50": "< 750"}
{"compound": "COC[C@H]1C[C@@](Cc2ccsn2)(C(=O)O)N(C(=O)c2ccc(C(C)(C)C)c(OC)c2)[C@H]1c1ncc(C)s1", "note": "(racemic) [Example 9, rel-(2R,4S,5R)-1-(3-Methoxy-4-tert-butylbenzoyl)-4-(methoxymethyl)-5-(5-methyl-1,3-thiazol-2-yl)-2-(1,2-thiazol-3-ylmethyl)pyrrolidine-2-carboxylic acid]", "IC50": "< 750"}
{"compound": "COC[C@H]1C[C@@](Cn2cccn2)(C(=O)O)N(C(=O)c2ccc(C(C)(C)C)c(OC)c2)[C@H]1c1ncc(C)s1", "note": "(single isomer, unassigned; enantiomer a) [Example 11]", "IC50": "< 750"}
{"compound": "COC[C@H]1C[C@@](Cc2cscn2)(C(=O)O)N(C(=O)c2ccc(C(C)(C)C)c(OC)c2)[C@H]1c1ncc(C)s1", "note": "(racemic) [Example 1, rel-(2R,4S,5R)-1-(3-Methoxy-4-tert-butylbenzoyl)-4-(methoxymethyl)-5-(5-methyl-1,3-thiazol-2-yl)-2-(1,3-thiazol-4-ylmethyl)pyrrolidine-2-carboxylic acid]", "IC50": "< 750"}
{"compound": "COCC1CC(CC(C)C)(C(=O)O)N(C(=O)c2ccc(C(C)(C)C)c(OC)c2)C1c1ncc(C)s1", "note": "(single isomer, unassigned; enantiomer a) [Compound D, reference compound]", "IC50": "750 to 1000"}
{"compound": "COC[C@H]1C[C@@](Cn2cccn2)(C(=O)O)N(C(=O)c2ccc(C(C)(C)C)c(OC)c2)[C@H]1c1ncc(C)s1", "note": "(racemic) [Example 10, rel-(2R,4S,5R)-1-(3-Methoxy-4-tert-butylbenzoyl)-4-(methoxymethyl)-5-(5-methyl-1,3-thiazol-2-yl)-2-(1H-pyrazol-1-ylmethyl)pyrrolidine-2-carboxylic acid]", "IC50": "< 750"}
{"compound": "COC[C@H]1C[C@@](Cc2ccsn2)(C(=O)O)N(C(=O)c2ccc(C(C)(C)C)c(OC)c2)[C@H]1c1nccs1", "note": "(racemic) [Example 4, rel-(2R,4S,5R)-1-(3-Methoxy-4-tert-butylbenzoyl)-4-(methoxymethyl)-5-(1,3-thiazol-2-yl)-2-(1,2-thiazol-3-ylmethyl)pyrrolidine-2-carboxylic acid]", "IC50": "< 750"}
{"compound": "COC[C@H]1C[C@@](Cc2cscn2)(C(=O)O)N(C(=O)c2ccc(C(C)(C)C)c(OC)c2)[C@H]1c1nccs1", "note": "(single isomer, unassigned; enantiomer a) [Example 12]", "IC50": "< 750"}
{"compound": "COC[C@H]1C[C@@](Cc2ccsn2)(C(=O)O)N(C(=O)c2ccc(C(C)(C)C)c(OC)c2)[C@H]1c1nccs1", "note": "(single isomer, unassigned; enantiomer a) [Example 5]", "IC50": "< 750"}
